# Laboratory results as given in patent US20250296971A1, “GASTRIC INHIBITORY PEPTIDE RECEPTOR LIGANDS” (priority 2021, published 2025).
# pIC50: −log10 of the molar value. Read-outs that look alike come from different tables or passages of the source. *1 amine or outer side, *2 acyl side, *3 side chain or, on linkers, in order; H or OH if unused. Where a SMILES comes first, the peptide text is derived from it. Bridges are numbered along the chain shown (N, C = ends). [ ]: non-standard residue; d: D form. The star is where a group is joined. DOTA(In) = O=C1CN2CCN3CCN(CC(=O)*)CCN(CC2)CC(=O)[O][In]([O]1)[O]C(=O)C3; DOTA(Lu) = O=C1CN2CCN3CCN(CC(=O)*)CCN(CC2)CC(=O)[O][Lu]([O]1)[O]C(=O)C3; X3 = O=C(O)CN1CCN(CC(=O)O)CCN(CC(=O)NCCCOCCOCCOCCCN*)CCN(CC(=O)O)CC1; NH(1-deoxy-D-glucityl) = OC[C@@H](O)[C@@H](O)[C@H](O)[C@@H](O)CN*; DOTA = O=C(O)CN1CCN(CC(=O)O)CCN(CC(=O)*)CCN(CC(=O)O)CC1; Trp(5-Cl) = N[C@@H](Cc1c[nH]c2ccc(Cl)cc12)C(=O)O; Pyridine(2,6-diCH2) = c1cc(C[*:1])nc(C[*:2])c1; Pro(4R-NH2) = N[C@H]1CN[C@H](C(=O)O)C1; PEG6 = NCCOCCOCCOCCOCCOCCOCCC(=O)O; X6 = c1cc(CSCCN[*:2])nc(C[*:1])c1; X7 = c1cc(CSCCN[*:2])cc(C[*:1])c1; Hyp = O=C(O)[C@@H]1C[C@@H](O)CN1; X1 = O=C(CN1CCC(N[*:1])CC1)[*:2]; pS = N[C@@H](COP(=O)(O)O)C(=O)O; Suc = O=C(CCC(=O)[*:2])[*:1]; Thp = NC1(C(=O)O)CCOCC1; Aib = CC(C)(N)C(=O)O; Sar = CNCC(=O)O
# Biological target: T1, GIPR (CHO-K1-hGIPR cells) (Homo sapiens, UniProt P48546)
# T1 construct: host or cells: CHO-K1
# T1 sequence (P48546 22-466): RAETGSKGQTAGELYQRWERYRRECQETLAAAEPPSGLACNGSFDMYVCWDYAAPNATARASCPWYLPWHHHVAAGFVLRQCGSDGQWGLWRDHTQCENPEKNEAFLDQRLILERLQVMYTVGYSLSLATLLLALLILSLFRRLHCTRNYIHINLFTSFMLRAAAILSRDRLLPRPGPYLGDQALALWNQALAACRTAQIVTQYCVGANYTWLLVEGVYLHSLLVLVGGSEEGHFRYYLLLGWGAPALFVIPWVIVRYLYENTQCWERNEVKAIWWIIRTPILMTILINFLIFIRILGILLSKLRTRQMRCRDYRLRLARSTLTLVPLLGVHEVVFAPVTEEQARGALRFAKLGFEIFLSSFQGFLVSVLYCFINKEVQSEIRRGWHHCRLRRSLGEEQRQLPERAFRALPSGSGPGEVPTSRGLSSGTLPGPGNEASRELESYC
# Assay: FACS binding assay
# Details: for IC50: read-out: pIC50 Category (converted)
# In short: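 Steps: detach CHO-K1-hGIPR cells (Accutase); wash in PBS/1% FCS; adjust to 500.000 cells per mL; wash ice-cold; incubate APC-streptavidin 1 μg/mL, 30 min on ice; wash twice; acquire on flow cytometer; fit MFI-concentration data with a four-parameter logistic model.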
# [1] = competition with 20 nM GIP-057, 4° C., 1 hour
SMILES,IC50 [1],also measured
"CC[C@H](C)[C@@H]1NC(=O)[C@H](CC(C)C)NC(=O)C2(CCOCC2)NC(=O)[C@@H](NC(=O)[C@@H](CC(C)C)NC(=O)[C@H](CCC(=O)O)NC(=O)[C@@H]2C[C@@H](O)CN2C(=O)[C@H](Cc2c[nH]c3ccc(Cl)cc23)NC(=O)[C@H](Cc2c[nH]c3ccccc23)NC(=O)[C@H](CC(=O)O)NC(=O)CN2CCC(NC(=O)CN3CCN4CCN5CCN(CC3)CC(=O)[O][Lu]([O]C(=O)C4)[O]C(=O)C5)CC2)CSCc2cccc(n2)CSCCNC1=O [GIP-162, LuDOTA-APAc-Asp-Trp-5Clw-Hyp-Glu-leu-[Cys(2Lut)-Thp-Leu-Ile-AET]] ({DOTA(Lu)}-[X1]DW[Trp(5-Cl)][Hyp]E[dL]C[Thp]LI; linker 8-C via X6)",,"pIC50 (pIC50 Category, competition with 20 nM GIP-057, 4° C., 1 hour): > 8.00"
"CC[C@H](C)[C@@H]1NC(=O)[C@H](CC(C)C)NC(=O)C(C)(C)NC(=O)[C@@H](NC(=O)[C@@H](CC(C)C)NC(=O)[C@H](CCC(=O)O)NC(=O)CN(C)C(=O)[C@H](Cc2c[nH]c3ccc(Cl)cc23)NC(=O)[C@H](Cc2c[nH]c3ccccc23)NC(=O)[C@H](CC(=O)O)NC(=O)CCC(=O)NCCCOCCOCCOCCCNC(=O)CN2CCN(CC(=O)O)CCN(CC(=O)O)CCN(CC(=O)O)CC2)CSCc2cccc(c2)CSCCNC1=O [GIP-100, DOTA-Ttds-Asp-Trp-5Clw-Nmg-Glu-leu-[Cys(3MeBn)-Aib-Leu-Ile-AET]] ({X3-Suc}-DW[Trp(5-Cl)][Sar]E[dL]C[Aib]LI; linker 7-C via X7)",< 10 nM,
"CC[C@H](C)[C@@H]1NC(=O)[C@H](CC(C)C)NC(=O)[C@H](C)NC(=O)[C@@H](NC(=O)[C@H](CC(C)C)NC(=O)[C@H](CCC(=O)O)NC(=O)[C@@H]2CCCN2C(=O)[C@H](Cc2c[nH]c3ccccc23)NC(=O)[C@H](Cc2c[nH]c3ccccc23)NC(=O)CCC(=O)O)CSCc2cccc(c2)CSCCNC1=O [GIP-256, HO-Succinyl-Trp-Trp-Pro-Glu-Leu-[Cys(3MeBn)-Ala-Leu-Ile-AET]] (Suc-WWPELCALI; linker 6-C via X7)",,"IC50 (competition with 20 nM GIP-057, 4° C. for 1 hour): 10 to 79.4 nM"
"CC[C@H](C)[C@@H]1NC(=O)[C@H](CC(C)C)NC(=O)C2(CCOCC2)NC(=O)[C@@H](NC(=O)[C@@H](CC(C)C)NC(=O)[C@H](CCC(=O)O)NC(=O)[C@@H]2C[C@@H](O)CN2C(=O)[C@H](Cc2c[nH]c3ccc(Cl)cc23)NC(=O)[C@H](Cc2c[nH]c3ccccc23)NC(=O)CCC(=O)O)CSCc2cccc(n2)CSC[C@@H](C(=O)NC2CCN(CC(=O)N[C@@H](CCCCNC(=O)CN3CCN4CCN5CCN(CC3)CC(=O)[O][In]([O]C(=O)C4)[O]C(=O)C5)C(N)=O)CC2)NC1=O [GIP-168, HO-Succinyl-Trp-5Clw-Hyp-Glu-leu-[Cys(2Lut)-Thp-Leu-Ile-Cys]-APAc-Lys(InDOTA)-NH2] (Suc-W[Trp(5-Cl)][Hyp]E[dL]C[Thp]LIC[X1]K(DOTA(In))-NH2; linker 6-10 via Pyridine(2,6-diCH2))",< 10 nM,
"CC[C@H](C)[C@@H]1NC(=O)[C@H](CC(C)C)NC(=O)C2(CCOCC2)NC(=O)[C@@H](NC(=O)[C@@H](CC(C)C)NC(=O)[C@H](CCC(=O)O)NC(=O)[C@@H]2C[C@@H](O)CN2C(=O)[C@H](Cc2c[nH]c3ccc(Cl)cc23)NC(=O)[C@H](Cc2c[nH]c3ccccc23)NC(=O)[C@H](COP(=O)(O)O)NC(C)=O)CSCc2cccc(n2)CSC[C@@H](C(N)=O)NC1=O [GIP-207, Ac-Pse-Trp-5Clw-Hyp-Glu-leu-[Cys(2Lut)-Thp-Leu-Ile-Cys]-NH2] (Ac-[pS]W[Trp(5-Cl)][Hyp]E[dL]C[Thp]LIC-NH2; linker 7-11 via Pyridine(2,6-diCH2))",< 10 nM,
"CC[C@H](C)[C@@H]1NC(=O)[C@H](CC(C)C)NC(=O)C2(CCOCC2)NC(=O)[C@@H](NC(=O)[C@@H](CC(C)C)NC(=O)[C@H](CCC(=O)O)NC(=O)[C@@H]2C[C@@H](N)CN2C(=O)[C@H](Cc2c[nH]c3ccc(Cl)cc23)NC(=O)[C@H](Cc2c[nH]c3ccccc23)NC(=O)[C@H](CC(=O)O)NC(=O)[C@@H](CCC(=O)NC[C@H](O)[C@@H](O)[C@H](O)[C@H](O)CO)NC(=O)CCOCCOCCOCCOCCOCCOCCNC(=O)CN2CCN(CC(=O)O)CCN(CC(=O)O)CCN(CC(=O)O)CC2)CSCc2cccc(n2)CSC[C@@H](C(=O)NC2CCN(CC(=O)N[C@H](CCC(=O)NC[C@H](O)[C@@H](O)[C@H](O)[C@H](O)CO)C(N)=O)CC2)NC1=O [GIP-037, DOTA-PEG6-glu(AGLU)-Asp-Trp-5Clw-Tap-Glu-leu-[Cys(2Lut)-Thp-Leu-Ile-Cys]-APAc-glu(AGLU)-NH2] ({DOTA-PEG6}-[dE](NH(1-deoxy-D-glucityl))DW[Trp(5-Cl)][Pro(4R-NH2)]E[dL]C[Thp]LIC[X1][dE](NH(1-deoxy-D-glucityl))-NH2; linker 8-12 via Pyridine(2,6-diCH2))",< 10 nM,
